# Source: patent US6566304B1, “Biogenic control and limitation of the reproduction of parasitic earth nematodes in stock culture” (priority 1998, dated 2003)
# Tests used:
# Format in all cases: in vivo
# sugar beet = assay: Example 3 pot test with sugar beet: plant growth
# Procedure: (§1) Sugar beet was pregerminated in a temperature-controlled (18° C.) greenhouse and, at the two-leaf stage, the plants were each transplanted in a plastic pot (9×9 cm) filled with 500 g of a mixture of field soil and sand (1:1). The test substances were applied 2 days after transplanting. One day later, each pot was inoculated with 500 larvae of the nematode Heterodera schachtii. 6 Weeks later, the test was terminated and the density of the nematodes and also the shoot and root weights of the plants were determined.
# (§2) The following variants (with 10 repetitions each) were selected for the tests:
# (§3) fertilized control (quantity of N/P corresponds to 40 g/m^2 TerraPy G)
# (§4) control treated with nematicide (Aldicarb, 1 ppm)
# [1] = system: nematode Heterodera schachtii; assay: Example 3 pot test with sugar beet: nematode cysts on roots; conditions: Example 3, sugar beet, 6 weeks; comparators: Aldicarb 1 ppm; fertilized control N/P corresponds to 40 g/m^2 TerraPy G
# Procedure: as §1, §2, §3, §4
# [2] = system: microorganisms (bacteria per g of soil); assay: Example 3 pot test with sugar beet: soil microorganisms
# tomatoes [3] = assay: Example 4 pot test with tomatoes: plant growth
# Procedure: as §1, with “Tomatoes were pregerminated in” for “Sugar beet was pregerminated in”, “inoculated with 1,000 larvae of” for “inoculated with 500 larvae of”, “the nematode Meloidogyne incognita. 8 Weeks later,” for “the nematode Heterodera schachtii. 6 Weeks later,”
# as §2
# (§5) fertilized control (quantity of N/P corresponds to 40 g/m^2 TerraPy B)
# as §4
# [4] = system: nematode Meloidogyne incognita; assay: Example 4 pot test with tomatoes: gall index of root system; conditions: Example 4, tomatoes, 8 weeks; scale 1 to 10 (1=undamaged, 10=completely damaged root system); comparators: Aldicarb 1 ppm; fertilized control N/P corresponds to 40 g/m^2 TerraPy B
# Procedure: as §1, with “Tomatoes were pregerminated in” for “Sugar beet was pregerminated in”, “inoculated with 1,000 larvae of” for “inoculated with 500 larvae of”, “the nematode Meloidogyne incognita. 8 Weeks later,” for “the nematode Heterodera schachtii. 6 Weeks later,”
# as §2, §5, §4
# (§6) The gall index is a measure of the damage caused to the root system by the nematodes and is basically a scale of 1 to 10 where 1=undamaged and 10=completely damaged root system.
# [5] = system: microorganisms (bacteria per g of soil); assay: Example 4 pot test with tomatoes: soil microorganisms
# Procedure: as §1, with “Tomatoes were pregerminated in” for “Sugar beet was pregerminated in”, “inoculated with 1,000 larvae of” for “inoculated with 500 larvae of”, “the nematode Meloidogyne incognita. 8 Weeks later,” for “the nematode Heterodera schachtii. 6 Weeks later,”
# as §2, §5, §4
# tomatoes [6] = assay: Example 5 pot test with tomatoes: plant growth; conditions: Example 5, tomatoes, 1,000 M. incognita larvae per pot, 8 weeks; comparators: Aldicarb 1 ppm; fertilized control N/P corresponds to 40 g/m^2 TerraPy B
# Procedure: as §1, with “Tomatoes were pregerminated in” for “Sugar beet was pregerminated in”, “inoculated with 1,000 larvae of” for “inoculated with 500 larvae of”, “the nematode Meloidogyne incognita. 8 Weeks later,” for “the nematode Heterodera schachtii. 6 Weeks later,”
# (§7) The following variants (with 8 repetitions each) were selected for the tests:
# as §5, §4
# (§8) The object of this test was to investigate the smaller effective dose of the product.
# [7] = system: nematode Meloidogyne incognita; assay: Example 5 pot test with tomatoes: gall index of root system; conditions: Example 5, tomatoes, 8 weeks; scale 1 to 10; comparators: Aldicarb 1 ppm; fertilized control N/P corresponds to 40 g/m^2 TerraPy B
# Procedure: as §6
# as §1, with “Tomatoes were pregerminated in” for “Sugar beet was pregerminated in”, “inoculated with 1,000 larvae of” for “inoculated with 500 larvae of”, “the nematode Meloidogyne incognita. 8 Weeks later,” for “the nematode Heterodera schachtii. 6 Weeks later,”
# as §7, §5, §4, §8
# [8] = system: microorganisms (bacteria per g of soil); assay: Example 5 pot test with tomatoes: soil microorganisms
# Procedure: as §1, with “Tomatoes were pregerminated in” for “Sugar beet was pregerminated in”, “inoculated with 1,000 larvae of” for “inoculated with 500 larvae of”, “the nematode Meloidogyne incognita. 8 Weeks later,” for “the nematode Heterodera schachtii. 6 Weeks later,”
# as §7, §5, §4, §8
# tomatoes [9] = assay: Example 6 pot test with tomatoes, reduction of nematicides: plant growth
# Procedure: as §1, with “Tomatoes were pregerminated in” for “Sugar beet was pregerminated in”, “inoculated with 1,000 larvae of” for “inoculated with 500 larvae of”, “the nematode Meloidogyne incognita. 6 Weeks” for “the nematode Heterodera schachtii. 6 Weeks”
# (§9) The following variants (with 10 repetitions each) were selected for the tests: fertilized control (quantity of N/P corresponds to 40 g/m^2 TerraPy B) control treated with nematicide (Aldicarb, 1 ppm)
# (§10) TerraPy B 20 g/m^2 plus Aldicarb 0.1 ppm
# (§11) In addition, pots with all the variants mentioned above which had not been inoculated with nematodes were included in the tests.
# [10] = system: nematode Meloidogyne incognita; assay: Example 6 pot test with tomatoes, reduction of nematicides: gall index; conditions: Example 6, tomatoes, 6 weeks; Aldicarb 1 ppm; fertilized control N/P corresponds to 40 g/m^2 TerraPy B; TerraPy B 20 g/m^2; TerraPy B 20 g/m^2 plus Aldicarb 0.1 ppm
# Procedure: as §6
# as §1, with “Tomatoes were pregerminated in” for “Sugar beet was pregerminated in”, “inoculated with 1,000 larvae of” for “inoculated with 500 larvae of”, “the nematode Meloidogyne incognita. 6 Weeks” for “the nematode Heterodera schachtii. 6 Weeks”
# as §9, §10, §11
# tomatoes [11] = assay: Example 7 pot test with tomatoes, combination with mycorrhiza: plant growth; conditions: Example 7, tomatoes, 1,500 M. incognita larvae per pot, 9 weeks; Aldicarb 1 ppm; fertilized control N/P corresponds to 2 g/m^2 TerraPy B; TerraPy B 2 g/m^2; mycorrhiza 0.2%
# Procedure: (§12) Tomato seeds were planted in plastic pots (9×9 cm) each filled with 320 g of a mixture of field soil and sand (1:1) in a temperature-controlled greenhouse (18° C.). The test substances were applied 29 days after emergence. Two days later, each pot was inoculated with 1,500 larvae of the nematode Meloidogyne incognita. 9 Weeks later, the test was terminated and the density of the nematodes and the shoot and root weights of the plants were determined.
# as §2
# (§13) fertilized control (quantity of N/P corresponds to 2 g/m^2 TerraPy B)
# (§14) nematicide-treated control (Aldicarb, 1 ppm)
# (§15) mycorrhiza fungus mixture 0.2%
# (§16) TerraPy B 2 g/m^2 plus mycorrhiza 0.2%
# (§17) The mycorrhiza fungus mixture contained a mixed population of various Glomus strains of the species Glomus sclerocystis and G. gigasporum with 950 infectious units per cm^3 (=0.64 g per pot). The mixture was mixed with the pot soil after dilution to 0.2% at the beginning of the test.
# [12] = system: nematode Meloidogyne incognita; assay: Example 7 pot test with tomatoes, combination with mycorrhiza: galls on root system; conditions: Aldicarb 1 ppm, fertilized control N/P corresponds to 2 g/m^2 TerraPy B, TerraPy B 2 g/m^2, mycorrhiza 0.2%
# Procedure: as §12, §2, §13, §14, §15, §16, §17
# [13] = 2 days, comparators: Aldicarb 1 ppm, fertilized control
# [14] = 14 days, comparators: Aldicarb 1 ppm, fertilized control
# [15] = 56 days, comparators: Aldicarb 1 ppm, fertilized control
# [16] = Example 4, tomatoes, 8 weeks, comparators: Aldicarb 1 ppm, fertilized control N/P corresponds to 40 g/m^2 TerraPy B
smiles,measurement,setting,value
CNC(=O)O/N=C/C(C)(C)SC [Aldicarb],"plant growth / plant weight, in words","sugar beet; Example 3, sugar beet pot test",not effective in increasing plant weight
same,Root weight,"sugar beet; Example 3, sugar beet, 6 weeks, comparators: Aldicarb 1 ppm, fertilized control N/P corresponds to 40 g/m^2 TerraPy G",0.7 g
same,Shoot weight,"sugar beet; Example 3, sugar beet, 500 H. schachtii larvae per pot, 6 weeks, comparators: Aldicarb 1 ppm, fertilized control N/P corresponds to 40 g/m^2 TerraPy G",2.1 g
same,Nematode cysts per g root weight,[1],15 per g root weight
same,"effect on bacteria / microorganisms, in words",[2],harmful effect
same,"bacteria per g of soil, 2 Days after application",[2]; [13],7 × 10^6 bacteria per g of soil
same,"bacteria per g of soil, 14 Days after application",[2]; [14],8 × 10^6 bacteria per g of soil
same,"bacteria per g of soil, 56 Days after application",[2]; [15],1 × 10^7 bacteria per g of soil
same,"plant growth / plant weight, in words","tomatoes [3]; Example 4, tomato pot test",not effective in increasing plant weight
same,Root length in cm,tomatoes [3]; [16],12.0 cm
same,Root weight,tomatoes [3]; [16],1.5 g
same,Shoot weight,"tomatoes [3]; Example 4, tomatoes, 1,000 M. incognita larvae per pot, 8 weeks, comparators: Aldicarb 1 ppm, fertilized control N/P corresponds to 40 g/m^2 TerraPy B",4.7 g
same,Gall index,[4],3.9
same,"effect on bacteria / microorganisms, in words",[5],harmful effect
same,"bacteria per g of soil, 2 Days after application",[5]; [13],1 × 10^7 bacteria per g of soil
same,"bacteria per g of soil, 14 Days after application",[5]; [14],4 × 10^7 bacteria per g of soil
same,"bacteria per g of soil, 56 Days after application",[5]; [15],1 × 10^6 bacteria per g of soil
same,Shoot weight,tomatoes [6],4.2 g
same,Gall index,[7],4.2
same,"effect on bacteria / microorganisms, in words",[8],harmful effect
same,"bacteria per g of soil, 2 Days after application",[8]; [13],6 × 10^6 bacteria per g of soil
same,"bacteria per g of soil, 14 Days after application",[8]; [14],1 × 10^6 bacteria per g of soil
same,"bacteria per g of soil, 56 Days after application",[8]; [15],5 × 10^5 bacteria per g of soil
same,"plant growth / plant weight, in words","tomatoes [9]; Example 6, tomato pot test",completely ineffective
same,Root weight,"tomatoes [9]; Example 6, tomatoes, 6 weeks, Aldicarb 1 ppm, fertilized control N/P corresponds to 40 g/m^2 TerraPy B, TerraPy B 20 g/m^2, TerraPy B 20 g/m^2 plus Aldicarb 0.1 ppm",1.8 g
same,Shoot weight,"tomatoes [9]; Example 6, tomatoes, 1,000 M. incognita larvae per pot, 6 weeks, Aldicarb 1 ppm, fertilized control N/P corresponds to 40 g/m^2 TerraPy B, TerraPy B 20 g/m^2, TerraPy B 20 g/m^2 plus Aldicarb 0.1 ppm",3 g
same,Gall index,[10],0.5
same,Shoot weight,tomatoes [11],4.2 g
same,Number of galls per root system,"[12]; Example 7, tomatoes, 9 weeks",22
same,"Number of galls per root system, In percent","[12]; Example 7, unfertilized untreated control = 100%",19%
